Measurements reported in patent US11951204B2, “Cell-penetrating peptides and composition including the same” (S-SKIN. CO., LTD., priority 2022, dated 2024).
Ends that are not written are not given here. * marks the point of attachment. FITC = O=C1OC2(c3ccc(O)cc3Oc3cc(O)ccc32)c2ccc(NC(=S)*)cc21; Ahx = NCCCCCC(=O)O

Tests used:
Type in all cases: cell-based, human
HaCaT cells [1] = test: Cell penetration by confocal laser microscope; conditions: 10 μM, 24 hours, compared to positive control FITC-TAT
Method: HaCaT cells were inoculated at a concentration of 1.5×10^4 cells/well into an optical 96-well plate (M0562, Greiner) and incubated for 24 hours. Then, the medium was removed, followed by washing once with HBSS, and replaced with a serum-free medium. The cells were treated with 10 μM FITC-Spep001, FITC-Spep002 or FITC-Spep003 and then further incubated for 24 hours. Thereafter, the cells were washed four times with HBSS and treated with 10 μg/mL H33342 (bisBenzimide H33342 trihydrochloride (B2261, Sigma)) and then further incubated at room temperature for 5 minutes. Finally, the cells were washed three times with HBSS. The cell penetration rate was checked using a super resolution confocal laser microscope (LSM800), and the result thereof is shown in FIG. 4A(i) to FIG. 4F(iv). Herein, the cells were treated only FITC (F1906, Invitrogen™) as a negative control, and FITC-TAT was used as a positive control.

HaCaT cells [2] = test: Cell penetration rate by flow cytometry; conditions: 10 μM, 37° C., 1 hour
Method: (§1) HaCaT cells were inoculated at a concentration of 3×10^5 cells/well into a 6-well plate and incubated for 24 hours. Then, the cell culture medium was removed, followed by washing twice with HBSS, and replaced with an Opti-MEM medium. The cells were treated with 10 μM FITC-TAT, FITC-Spep001, FITC-Spep002 or FITC-Spep003 and incubated at 37° C. with 5% CO2 for 1 hour. […] Finally, the cells were treated with 1 mg/mL trypsin and thus separated into single cells, followed by centrifugation at 1,000 rpm for 5 minutes. The FITC fluorescence intensities of cell-penetrating peptides per living 10,000 cells were measured by performing flow cytometry (Navios Flow Cytometer by Beckman Coulter Life Sciences), and the result thereof is shown in FIG. 5A(i) to FIG. 5A(v) and FIG. 5B.

HaCaT cells [3] = test: Dependence of cell penetration on ATP (flow cytometry); conditions: pre-treated with 2-DG and NaN3
Method: as §1
A test was conducted in the same conditions as those in Example 7 except that the cells were pre-treated with 2-DG (2-deoxyglucose, D6134, sigma) and NaN3 (sodium azide, 71289, sigma) one hour before treatment with FITC-TAT, FITC-Spep001, FITC-Spep002 or FITC-Spep003 to check the dependence of endocytosis on ATP. Then, the FITC fluorescence intensities of peptides penetrating into living cells were measured by flow cytometry as in Example 5, and the result thereof is shown in FIG. 7.

For “FITC-Ahx-RLRLRQRRRR ({FITC-Ahx}-RLRLRQRRRR) [FITC-Spep001, Spep001 labelled with FITC at the N-terminal amine group]”, the “amount penetrating into cells (fluorescent microscopic image)” value (HaCaT cells [1]) was “penetrates into cells in a greater amount than the positive control FITC-TAT”, the “cell penetration rate (FITC-positive cell count)” value (HaCaT cells [2]) was 36.3% and the “cell penetration rate based on TAT-FITC with a cell penetration rate of 100%” value (HaCaT cells [2]) was 133.95%. For the same substance, the “FITC fluorescence intensity under ATP deficiency” value (HaCaT cells [3]) was “decreased”.
